Laboratory results published in US9657351B2, “MRNA-based gene expression for personalizing patient cancer therapy with an MDM2 antagonist” (Hoffmann-La Roche Inc., priority 2013, dated 2017).
“And” between values parts separate entries of the source, which are not always exact repeats. Equal values may be shown once.

Columns and labels:
[1] = system: Ki-67-positive tumor cells; assay: NP21280 solid tumor trial, tumor biopsy biomarker (Ki67); format: in vivo, human; conditions: p=2.62×10−2
Method: The predictive mRNA signature is also evaluated in two solid tumor trials (FIG. 1). In trial NP21280 30 patients with pretreatment and C1D5 tumor biopsy samples are evaluated; and in NP22890 20 patients with pretreatment and C1D8 tumor biopsy samples are evaluated (Table 6). In both clinical trials, a biomarker package that enabled assessment of p53 pathway activation is assessed (p53 IHC, p21 IHC, MDM2 mRNA, and Ki67), MDM2 inhibition activates the P53 pathway and decreases cell proliferation.

[2] = system: PC-9; assay: COMPOUND A In Vitro Assay; format: cell-based, human; conditions: for IC50: Homo sapiens
From the text: (§1) To generate an MDM2 antagonist therapy predictive signature, the response of MDM2 antagonist therapy in vitro with gene expression profiling (FIG. 1) is combined. A bank of 287 human cancer cell lines, collectively termed the Cell Lines for Oncology/Chugai ACcumulative Tumour EncycLopedia (CELLO/CACTEL), representing a broad array of diverse human cancer tumor types are subject to evaluation using several high-throughput genomic technology platforms. The mutational status of nucleic acids from each cell line is determined by exome sequencing. Messenger RNA (mRNA) expression levels at baseline, prior to MDM2 antagonist therapy, are obtained via RNA sequencing. MDM2 antagonist therapy COMPOUND A, sometimes referred to herein as RG7112, responses are obtained by assays known to those skilled in the art such as RNA sequencing and microarray measurement using Gene Chip Human Genome U133 Plus 2.0 Array. The MDM2 therapy responses are obtained by high throughout screening assays. Depending on their responses to COMPOUND A these cell lines are classified as either sensitive, defined as IC50<=1, or resistant, defined as IC50>=10.
(§2) 281 cells are treated with MDM2 antagonists and the IC50 (therapy response) is generated. The cell lines span a broad range of tumor cell types of derivation.

[3] = system: KMS-26; assay: COMPOUND A In Vitro Assay; format: cell-based, human; conditions: for IC50: Homo sapiens
From the text: as §1, §2

[4] = system: DU145; assay: COMPOUND A In Vitro Assay; format: cell-based, human
From the text: as §1, §2

[5] = system: 22Rv1; assay: COMPOUND A In Vitro Assay; format: cell-based, human; conditions: for IC50: Homo sapiens
From the text: as §1, §2

[6] = system: LN-18; assay: COMPOUND A In Vitro Assay; format: cell-based, human; conditions: for IC50: Homo sapiens
From the text: as §1, §2

[7] = system: NCI-H2122; assay: COMPOUND A In Vitro Assay; format: cell-based, human; conditions: for IC50: Homo sapiens
From the text: as §1, §2

[8] = system: KMS-12-BM; assay: COMPOUND A In Vitro Assay; format: cell-based, human; conditions: TP53 mutant cell line
From the text: as §1, §2

[9] = system: MKN-45; assay: COMPOUND A In Vitro Assay; format: cell-based, human; conditions: for IC50: Homo sapiens
From the text: as §1, §2

[10] = system: NCI-H226; assay: COMPOUND A In Vitro Assay; format: cell-based, human; conditions: for IC50: Homo sapiens
From the text: as §1, §2

[11] = system: LCLC-103H; assay: COMPOUND A In Vitro Assay; format: cell-based, human
From the text: as §1, §2

[12] = system: SW1463; assay: COMPOUND A In Vitro Assay; format: cell-based, human
From the text: as §1, §2

[13] = system: MDM2 mRNA; assay: NO21279 pharmacodynamic response, MDM2 mRNA by quantitative real-time PCR in leukemia cells; format: in vivo, human
Method: The performance of the MDM2 antagonist predictive mRNA response signature is tested in the clinical setting with specimens from the NO21279 leukemia trial (FIG. 1). 28 AML patients treated at the MTD are enrolled and completed pretreatment and C1D10 (cycle 1, day 10) sampling. […] The clinical endpoint in NO21279 was divided into 4 categories: Complete Response (CR), Morphologic Leukemia-Free State (MLFS), Hematologic Improvement (HI), and Progressive Disease (PD). Blood leukemia samples and bone marrow biopsy samples were collected at baseline screening, after a single dose (cycle 1 day 2, C1D2) and on last day of dosing (cycle 1, day 10, C1D10) and isolated via MACS® separation^11. The early pharmacodynamic effect of MDM2 antagonism in blood leukemia samples was assessed by measuring MDM2 RT PCR change between baseline and C1D10. Global gene expression profiles were generated for the peripheral blood leukemia cells and bone marrow biopsy samples obtained at baseline, C1D2 and C1D10.
MDM2 mRNA concentrations were assessed at Roche Molecular Systems by quantitative real-time PCR with 50 ng total RNA from MACs isolated leukemia cells from blood. TaqMan (Invitrogen, Carlsbad, Calif., USA) probes were designed to detect MDM2 mRNA and the reference mRNA, beta-glucuronidase, simultaneously using two different fluorescent reporters. Gene expression profiles were generated using Affymetrix U133 Plus 2.0 microarrays. Probset ID's for the each of the four genes on said U133 Plus 2.0 microarray are: 209375_s_at (for XPC); 205386_s_at and 211832_s_at (MDM2); 211692_s_at (BBC3); 207039_at and 211156_at (CDKN2A). […] The predictive patient signature score according to the present invention is then calculated using the following equation: patient signature score=GMDM2+GXPC+GBBC3−GCDKN2A. […] For example, for the patient data reported in Table 9 (Example 5), G is log 2 of the mRNA probeset expression of the relevant gene as measured with Affymetrix U133 Plus 2.0 microarrays.

[14] = system: MDM2 mRNA; conditions: NP22890; at C1D8; as previously reported; cited from earlier work

Question: What does the source list for CCOc1cc(C(C)(C)C)ccc1C1=N[C@@](C)(c2ccc(Cl)cc2)[C@@](C)(c2ccc(Cl)cc2)N1C(=O)N1CCN(CCCS(C)(=O)=O)CC1 [COMPOUND A]?
Answer: Ki-67-positive tumor cells change from baseline [1]: decreased; IC50 ([2]; PC-9, PC-9, Lung, TP53 Mutant): 0.69 µM; IC50 ([2]; PC-9, PC-9 cells): 0.7 µM; response to COMPOUND A (sensitive / resistant) ([2]; PC-9, TP53 mutant cell line): sensitive (sensitive, defined as IC50<=1); IC50 ([3]; KMS-26, KMS-26, Lymphocyte, TP53 Mutant): 0.45 µM; IC50 ([3]; KMS-26, KMS-26 cells): 0.5 µM; response to COMPOUND A (sensitive / resistant) ([3]; KMS-26, TP53 mutant cell line): sensitive (sensitive, defined as IC50<=1); IC50 ([4]; Homo sapiens, DU-145, Prostate, TP53 Mutant): 1 µM; response to COMPOUND A (sensitive / resistant) ([4]; TP53 mutant cell line): sensitive (sensitive, defined as IC50<=1); response to COMPOUND A (sensitive / resistant) ([5]; 22Rv1, TP53 mutant cell line): sensitive (sensitive, defined as IC50<=1); IC50 ([5]; 22Rv1, 22Rv1, Prostate, TP53 Mutant): 0.97 µM; IC50 ([5]; 22Rv1, 22Rv1 cells): 1 µM; IC50 ([6]; LN-18, LN-18, Brain, temporal lobe, TP53 Mutant): 0.67 µM; IC50 ([6]; LN-18, LN-18 cells): 0.7 µM; response to COMPOUND A (sensitive / resistant) ([6]; LN-18, TP53 mutant cell line): sensitive (sensitive, defined as IC50<=1); IC50 ([7]; NCI-H2122, NCI-H2122, Lung, TP53 Mutant): 0.16 µM; IC50 ([7]; NCI-H2122, NCI-H2122 cells): 0.2 µM; response to COMPOUND A (sensitive / resistant) ([7]; NCI-H2122, TP53 mutant cell line): sensitive (sensitive, defined as IC50<=1); response to COMPOUND A (sensitive / resistant) [8]: sensitive (sensitive, defined as IC50<=1); IC50 ([9]; MKN-45, MKN-45, Stomach, TP53 Mutant): 0.18 µM; IC50 ([9]; MKN-45, MKN-45 cells): 0.2 µM; response to COMPOUND A (sensitive / resistant) ([9]; MKN-45, TP53 mutant cell line): sensitive (sensitive, defined as IC50<=1); IC50 ([10]; NCI-H226, NCI-H226, Lung, TP53 Mutant): 0.13 µM; IC50 ([10]; NCI-H226, NCI-H226 cells): 0.1 µM; response to COMPOUND A (sensitive / resistant) ([10]; NCI-H226, TP53 mutant cell line): sensitive (sensitive, defined as IC50<=1); IC50 ([11]; Homo sapiens, Lung, TP53 Mutant): 0.7 µM; response to COMPOUND A (sensitive / resistant) ([11]; TP53 mutant cell line): sensitive (sensitive, defined as IC50<=1); IC50 ([12]; Homo sapiens, Intestine, large, rectum, TP53 Mutant): 1 µM; response to COMPOUND A (sensitive / resistant) ([12]; TP53 mutant cell line): sensitive (sensitive, defined as IC50<=1); median MDM2 mRNA expression increase over baseline ([13]; C1D10 vs baseline, IQR 1.62-4.59, NO21279): 2.46 times; MDM2 mRNA (RT-PCR) fold change over baseline (C1D10), median increase ([13]; all patients, IQR 1.62-4.59): 2.46x (IQR:; MDM2 mRNA (RT-PCR) fold change over baseline (C1D10) ([13]; individual AML patients (no. 1-28), NO21279, blood leukemia cells, listed as RG7112): 2.23 fold and 5.67 fold and 5.05 fold and 9.66 fold and 1.79 fold and 23.00 fold and 2.01 fold and 1.72 fold and 5.07 fold and 3.20 fold and 4.35 fold and 1.27 fold and 2.51 fold and 0.96 fold and 1.69 fold and 2.26 fold and 1.52 fold and 3.88 fold and 2.65 fold and 5.11 fold and 9.46 fold and 1.00 fold and 1.59 fold and 1.67 fold and 3.00 fold; MDM2 mRNA expression change from baseline [14]: significantly increase
